Here are results for 1 compound from US20150065470A1, “Steroid Sulfatase Inhibitor Regimen for the Treatment of Endometriosis” (priority 2012, published 2015).

Like-named read-outs stand apart in the source and are kept apart here.

As usually defined, the Emax is the greatest response seen or fitted, relative to the assay's reference.

The target of series [1] is T1, STS activity in the uterus or in induced lesions (Mus musculus, UniProt P50427).
T1 construct: host or cells: mouse uterus or induced endometriosis-like lesions
T1 sequence (P50427 23-624): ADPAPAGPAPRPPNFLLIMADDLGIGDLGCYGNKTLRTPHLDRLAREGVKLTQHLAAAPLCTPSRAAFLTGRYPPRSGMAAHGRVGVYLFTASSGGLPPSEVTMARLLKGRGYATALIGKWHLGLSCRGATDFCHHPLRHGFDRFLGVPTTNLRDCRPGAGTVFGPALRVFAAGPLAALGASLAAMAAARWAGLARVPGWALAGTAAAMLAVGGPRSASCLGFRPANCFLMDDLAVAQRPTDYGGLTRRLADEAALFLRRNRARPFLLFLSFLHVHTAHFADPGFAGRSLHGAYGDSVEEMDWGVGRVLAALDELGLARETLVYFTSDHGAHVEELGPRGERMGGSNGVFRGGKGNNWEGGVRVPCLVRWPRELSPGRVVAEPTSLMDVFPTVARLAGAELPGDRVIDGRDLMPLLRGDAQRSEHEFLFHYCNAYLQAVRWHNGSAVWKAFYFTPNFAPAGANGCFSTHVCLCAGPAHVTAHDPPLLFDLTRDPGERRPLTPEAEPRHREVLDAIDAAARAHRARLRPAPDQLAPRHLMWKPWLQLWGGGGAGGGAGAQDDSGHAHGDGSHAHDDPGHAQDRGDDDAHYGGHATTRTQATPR
The settings on record: highest dose (1 mg/kg daily oral, 21 days); cited from earlier work.

Series [2] is described as follows: Safety, tolerability and post-treatment menstruation cycles, Example 2. The text has this:
Menstruation cycle length was not influenced by the treatment. […] Sizes of right and left ovary differed slightly for each subject, but no clinically relevant changes were identified by the gynaecologists.

For series [3], the target named is T2, Steroid Sulfatase in PBMCs (Homo sapiens, UniProt P08842).
T2 construct: Pharmacodynamic properties were investigated by assessment of the STS activity in PBMCs; endogenous in cells; host or cells: peripheral blood mononuclear cells (PBMCs) of dosed women
T2 sequence (P08842 22-583): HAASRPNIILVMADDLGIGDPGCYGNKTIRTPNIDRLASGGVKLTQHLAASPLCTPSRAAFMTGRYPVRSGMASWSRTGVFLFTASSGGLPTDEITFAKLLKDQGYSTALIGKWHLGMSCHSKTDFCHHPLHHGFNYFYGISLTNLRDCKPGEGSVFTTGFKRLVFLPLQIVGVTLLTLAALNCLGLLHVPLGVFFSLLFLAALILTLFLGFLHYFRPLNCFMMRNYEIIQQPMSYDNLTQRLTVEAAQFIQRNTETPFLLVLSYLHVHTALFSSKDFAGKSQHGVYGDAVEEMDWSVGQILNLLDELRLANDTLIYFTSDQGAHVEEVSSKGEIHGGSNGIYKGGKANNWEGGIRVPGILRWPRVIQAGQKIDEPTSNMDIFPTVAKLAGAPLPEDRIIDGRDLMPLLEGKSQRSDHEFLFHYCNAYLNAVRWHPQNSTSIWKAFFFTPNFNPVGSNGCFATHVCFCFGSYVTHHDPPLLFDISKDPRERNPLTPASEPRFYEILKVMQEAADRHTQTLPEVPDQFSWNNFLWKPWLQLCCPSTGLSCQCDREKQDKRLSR
The series can be described thus: STS activity in PBMCs, Example 1 (radio scintillation assay). It counts as in vivo. The note with it: for Emax: read-out: Emax (%) maximal inhibition of Steroid Sulfatase in PBMCs, Mean (SD); for STS inhibition in PBMCs: single dose 4 mg E2MATE. As to the method:
Treatment was started within 72 hours after the beginning of menstrual bleeding.
The active doses tested were 0.25 mg (1st cohort), 1 mg, 4 mg and 8 mg.
The active doses tested were 0.25 mg, 1 mg and 4 mg.
Ovarian and endometrium transvaginal ultrasounds throughout the study (Part A and B) and an endometrial biopsy (Part B only) were performed.
Pharmacodynamic properties were investigated by assessment of the STS activity in PBMCs and by measurement of the serum hormonal profile comprising the ratio of E1-S to E1 and DHEA-S to DHEA. […] Hormone profiles were analysed using commercially available ELISA or RIA kits.

The mark [4] stands for this setting: multiple dose 0.25 mg E2MATE weekly for four weeks.
Setting [5] is: multiple dose 1 mg E2MATE weekly for four weeks.
[6] abbreviates: multiple dose 4 mg E2MATE weekly for four weeks.

Turning to `C[C@]12CC[C@@H]3c4ccc(OS(N)(=O)=O)cc4CC[C@H]3[C@@H]1CC[C@@H]2O` [E2MATE, Estradiol-3-o-sulfamate], the “STS activity inhibition in the uterus or in induced lesions” value in series [1] is given as ≤ 36%. Besides, in series [2] (in vivo), the ovarian size result is reported as “no apparent effect”. Moreover, the tolerability entry in series [2] (multiple doses for 4 weeks, healthy pre-menopausal female subjects) was “well tolerated”. The “AVG (%) average inhibition of Steroid Sulfatase in PBMCs, Mean (SD)” value in series [3] (setting [4]) is on record as 22.7 (16.5) %; in series [3] (setting [5]) it was 43.5 (23.2) %; in series [3] (setting [6]), 88.4 (9.5) %; in series [3] (single oral dose 0.25 mg E2MATE, Day 1 until EOS), 23.2 (14.6) %; in series [3] (single oral dose 1 mg E2MATE, Day 1 until EOS) it was 25.2 (10.6) %. The Emax turned out to be 42% in series [3] (setting [4]); 79.5% in series [3] (setting [5]); 100% in series [3] (setting [6]); 59.5% in series [3] (po, single oral dose 0.25 mg E2MATE); 58.7% in series [3] (po, single oral dose 1 mg E2MATE); 99.5% in series [3] (po, single oral dose 4 mg E2MATE). In addition, the “STS inhibition in PBMCs” value in series [3] (Day 0 of cycle 2 (approximately 56 days after dosing)) was found to be 82%; in series [3] (Day 3), 96%.
